Source: US20170056351A1, “COMPOSITION FOR INDUCING TUMOR IMMUNITY” (UNIVERSITY OF OCCUPATIONAL AND ENVIRONMENTAL HEALTH, JAPAN, priority 2014, published 2017)

What was measured:
U251 cells = test: Cellular ROS levels after ionizing irradiation (DCFD, flow cytometry), U251; format: cell-based, human; conditions: for relative MFI of DCF fluorescence 12 hours after ionizing irradiation, timing study: 10 Gy
Protocol: Intracellular ROS production was evaluated using the oxidant-sensitive fluorescence probe DCFD and flow cytometry (Yamamori T, Yasui H, Yamazumi M, et al: Ionizing radiation induces mitochondrial reactive oxygen species production accompanied by upregulation of mitochondrial electron transport chain function and mitochondrial content under control of the cell cycle checkpoint. Free Radic Biol Med 53: 260-270, 2012.). The cells were seeded on a 100-mm culture dish, and using an X-ray irradiation apparatus (MBR-1520R; Hitachi, Tokyo, Japan) (0.67 Gy/min), the cells were then irradiated with a radiation of 10 Gy in a dark room. During the ionizing irradiation, the culture dish was maintained at a room temperature in a dark container. In the case of a 5-ALA and ionizing irradiation group (RT,12 h+ALA), the cells were treated with 1 mM 5-ALA for 4 hours, then, immediately after the treatment, the cells were irradiated with ionizing radiation, and were then incubated together with 10 μM DCFD at 37° C. for 15 minutes, followed by washing with PBS twice. Thereafter, as described above, the cells were analyzed using a flow cytometer (excitation: 488 nm; radiation: 525/50 nm band-pass filter). Control cells were not exposed to ionizing radiation or 5-ALA. In a 5-ALA group, the cells were treated with 1 mM 5-ALA for 4 hours, but were not exposed to ionizing radiation. The control cells and the cells of the 5-ALA group were treated with DCFD in the same manner as described above. In order to prevent the photoactivation of 5-ALA-induced PpIX and DCFD, all procedures were carried out in a dark room. The flow cytometric data were analyzed using FlowJo (Tree Star Inc., Ashland, Oreg., USA). The MFI of the DCF fluorescence in the cells, with respect to that in control cells, was calculated for each cell line.
The cells were seeded on a 100-mm culture dish, and were then exposed to an ionizing radiation of 10 Gy. The incubation time (4 h) of 1 mM 5-ALA was the same among individual groups, and three types of 5-ALA treatment times were initiated: i) 5-ALA treatment immediately before ionizing irradiation [RT+ALA (pre) group]; ii) 5-ALA treatment immediately after ionizing irradiation [RT+ALA (4 h) group]; and iii) 5-ALA treatment 8 hours after ionizing irradiation [RT+ALA (12 h) group]. In each group, twelve hours after the ionizing irradiation, the cells were incubated together with 10 μM DCFD at 37° C. for 15 minutes, and were then washed with PBS twice. Immediately after the washing, as described above, DCF fluorescence was analyzed using a flow cytometer. Control cells were not treated with ionizing radiation or 5-ALA. In a group involving only ionizing irradiation (RT), the cells were exposed to ionizing radiation, without performing 5-ALA treatments, and were then treated with DCFD twelve hours after the exposure to the ionizing radiation in the same manner as described above. All procedures were carried out in a dark room. The flow cytometric data were analyzed using FlowJo software. The MFI of the DCF fluorescence in the cells, with respect to that in control cells, was calculated for each cell line.

9L gliosarcoma cells = test: Accumulation of ALA-induced PpIX in rat subcutaneous tumor model (HPLC analysis and fluorescence observation); format: in vivo
Protocol: As experimental animals, inbred male Fischer 344 rats (8 week old) (SLC, Inc. (Hamamatsu, Japan)) were used and were inoculated with 9L gliosarcoma cells. […] In short, 9L gliosarcoma cells (1×10^6 cells) were transplanted into the skin on the dorsal side of each Fischer 344 rat, so as to produce a rat subcutaneous tumor model.
Specifically, after the transplanted tumor had grown to a size of 1 cm in diameter, 100 mg/kg body weight of ALA was injected into the caudal vein of each rat (i.v.). Three hours later, the rat was anesthetized, and a tumor portion, excluding a portion covering the dorsal skin, was excised from the rat. The tumor portion was immediately subjected to a freezing treatment using dry ice, and the resultant was then preserved at −80° C. in a dark place.
Specifically, a tumor sample (approximately 1 mm in diameter) was treated with 200 μl of 0.1 M NaOH, and it was then homogenized on ice, using Powermasher II (Assist, Tokyo, Japan). […]
For the elution, Solvent A was used for 5 minutes, then, linear gradient Solvent B (0% to 100%) was used for 25 minutes, and thereafter, Solvent B was used for 10 minutes. The flow rate for elution was maintained at constant, using a fluorospectro-photometer (excited at 404 nm, and detected at 624 nm). […]

9L cells = test: Intracellular localization of ROS 12 hours after ionizing radiation (DCFD, confocal laser scanning microscope), 9L; format: cell-based, rat; conditions: pre-treatment with 1 mM 5-ALA 4 hours before 10 Gy, 12 hours after irradiation, vs no 5-ALA
Protocol: Intracellular ROS production was detected by our method using DCFD and a confocal laser scanning microscope (LMS5 Pascal; Carl Zeiss, Jena, Germany) (Yamamoto J, Ogura S, Tanaka T, et al: Radiosensitizing effect of 5-aminolevulinic acid-induced protoporphyrin IX in glioma cells in vitro. Oncol Rep 27: 1748-1752, 2012.). Briefly, the cells were seeded in a fresh medium containing 1 mM 5-ALA in a 35-mm glass-bottom culture dish (Asahi Techno Glass, Tokyo, Japan), and were then incubated at 37° C. for 4 hours in a dark room. Thereafter, the cells were washed with PBS, and were then exposed to an ionizing radiation of 10 Gy. Twelve hours after the ionizing irradiation, the cells were washed with PBS twice, and were then incubated together with 10 μM DCFD for 15 minutes. Thereafter, the cells were washed with PBS twice, and immediately after the washing, the resulting cells were observed. DCFD fluorescence (excitation: 488 nm; radiation: 505-530 nm band-pass filter) was imaged on a confocal laser scanning microscope. All procedures were carried out in a dark room.

T98G cells = test: Intracellular level of 5-ALA-induced PpIX by flow cytometric analysis, T98G; format: cell-based, human; conditions: 1 mM 5-ALA for 4 hours, relative to 5-ALA-not-treated cells, average±SE
Protocol: (§1) Two types of rat glioma cell lines (9L and C6) and human glioma cell lines (U251 and T98G) were used. Before use, 9L and T98G were cultured in RPMI-1640 at 37° C. for several days, whereas C6 and U251 were cultured in 10% FBS-added Dulbecco's modified Eagle's medium (DMEM) at 37° C. for several days. These cell lines were maintained at 37° C. in 5% CO2 in a humidified incubator. The cells were subcultured at an exponential growth phase thereof, using 0.05% trypsin solution containing 0.5 mM ethylenediamine tetraacetate. 70% confluent cells were used in the subsequent experiments. […]
(§2) The cells were seeded on a 100-mm culture dish, and were then cultured. […] Immediately after the recovery, the cells were re-suspended in cold PBS/FBS, and were then analyzed using a flow cytometer (EC800; Sony Biotechnology, Tokyo, Japan). Generally, 30,000 cells contained in each sample were evaluated. Using 488-nm argon ion laser, fluorescence was excited from intracellular PpIX, and the fluorescence was then detected using a 640/30 nm band-pass filter. […] The flow cytometric data were analyzed using FlowJo (Tree Star Inc., Ashland, Oreg., USA). The mean fluorescence intensity (MFI) of PpIX fluorescence in the 5-ALA-treated cells, with respect to that of 5-ALA-not-treated cells, was calculated for each cell line.

C6 cells = test: Intracellular level of 5-ALA-induced PpIX by flow cytometric analysis, C6; format: cell-based, rat; conditions: 1 mM 5-ALA for 4 hours, relative to 5-ALA-not-treated cells, average±SE
Protocol: as §1, §2

SMILES: NCC(=O)CCC(=O)O [ALA, 5-aminolevulinic acid]
- relative MFI of DCF fluorescence (cellular ROS) (U251 cells; 1 mM 5-ALA 4 hours, without ionizing irradiation, relative to control cells, average±SE): 0.87±0.06
- relative MFI of DCF fluorescence 12 hours after ionizing irradiation, timing study (U251 cells; 5-ALA treatment 8 hours after ionizing irradiation, RT+ALA (12 h) group): 1.38±0.05
- relative MFI of DCF fluorescence 12 hours after ionizing irradiation, timing study (U251 cells; 5-ALA treatment immediately after ionizing irradiation, RT+ALA (4 h) group): 1.43±0.02
- relative MFI of DCF fluorescence 12 hours after ionizing irradiation, timing study (U251 cells; 5-ALA treatment immediately before ionizing irradiation, RT+ALA (pre) group): 1.44±0.02
- relative MFI of DCF fluorescence (cellular ROS) (U251 cells; 12 hours after 10 Gy ionizing irradiation with 5-ALA pre-treatment (1 mM, 4 hours), p=0.031 vs RT 12 h): 1.51±0.10
- amount of PpIX in tumor induced by ALA (HPLC) (9L gliosarcoma cells; 3 hours after intravenous administration of ALA 100 mg/kg body weight, mean±SE): 3.66±0.91 pmol/mg protein
- fluorescence of subcutaneous tumor under 410 nm light (9L gliosarcoma cells; 3 hours after intravenous administration of ALA, compared with control tumor without ALA): strong fluorescence
- DCF fluorescence in the cytoplasm (confocal) (9L cells): apparently increased
- relative MFI of PpIX fluorescence (T98G cells): 15.3±0.89
- relative MFI of PpIX fluorescence (C6 cells): 20.2±0.56
